US6277872A, “Oxadiazoles, processes for their preparation and their use as medicaments” (Boehringer Ingelheim KG, priority 1996, dated 2001)

Experiments:
[1] = biological target: T1, Histamine H1 receptor (Cavia porcellus, UniProt P31389); experiment: Histamine H1 receptor binding study; details: test concentration typically 10 μM; read-out: H1 Inh. [%]
T1 construct: from tissue
Source text: Table 5 summarises the inhibitory values on the above receptors:

[2] = tested on: permanent focal cerebral ischaemia (MCAO); experiment: Stroke model in the rat, permanent focal cerebral ischaemia by occlusion of the arteria cerebri media (MCAO); type: in vivo
Source text: A permanent focal cerebral ischaemia was induced by surgical occlusion of the arteria cerbri media (MCAO) (based on A. Tamura, D. I. Graham, J. McCulloch and G. M. Teasdale, J. Cereb. Blood Flow Metab. 1 (1981) 53-60).

[3] = tested on: Sigma receptor; experiment: Sigma receptor binding study; details: test concentration typically 10 μM
Procedure: (§1) The tests were typically carried out at a test concentration of 10 μM.

[4] = tested on: "Na+ channel site 2"-binding site; experiment: Binding to the Na+ channel site 2 binding site ([3H]-BTX); details: test concentration typically 10 μM
Procedure: as §1

[5] = tested on: AMPA receptor; experiment: Inhibition of the cainate-induced signal at the AMPA receptor, electrophysiology on neuronal cells (Patch-Clamp-Method); type: cell-based; details: test concentration of 100 μM
Procedure: The tests were carried out at a test concentration of 100 μM.

T1 sequence (P31389 whole entry): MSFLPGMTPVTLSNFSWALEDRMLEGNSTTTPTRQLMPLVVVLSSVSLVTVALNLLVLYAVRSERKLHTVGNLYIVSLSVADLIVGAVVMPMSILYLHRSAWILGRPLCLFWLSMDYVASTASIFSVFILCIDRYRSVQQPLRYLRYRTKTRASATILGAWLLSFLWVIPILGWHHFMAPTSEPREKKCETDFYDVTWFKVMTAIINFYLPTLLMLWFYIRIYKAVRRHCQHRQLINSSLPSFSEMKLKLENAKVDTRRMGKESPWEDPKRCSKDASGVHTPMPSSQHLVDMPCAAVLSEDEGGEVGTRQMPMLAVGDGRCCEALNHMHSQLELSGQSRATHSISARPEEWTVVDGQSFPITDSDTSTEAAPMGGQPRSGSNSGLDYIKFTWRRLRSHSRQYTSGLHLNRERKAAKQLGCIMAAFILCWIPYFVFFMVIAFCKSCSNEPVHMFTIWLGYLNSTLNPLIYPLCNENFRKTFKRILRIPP

Row | SMILES | inhibition at 10 µM [1] | volume of the lesion [2] | Sigma Inh. [%] [3] | Na+-channel Inh. [%] ([3H]-BTX) [4] | AMPA Inh. [%] (inhibiting the cainate-induced signal at the AMPA receptor) [5]
1 | CN(C)CCOc1ccccc1-c1nc(-c2ccccc2)no1 [Example 2, 5-{2-[2-(N,N-dimethylamino)ethyl]oxy-phenyl}-3-phenyl-1,2,4-oxadiazole] | 99% | reduce the volume of the lesion significantly | 62% | 86% | 86%
2 | CN(C)CCOc1ccccc1-c1nc(-c2cccc(Br)c2)no1 [Example 48, 5-{2-[2-(N,N-Dimethylamino)-ethyl]oxy-phenyl}-3-(3-bromophenyl)-1,2,4-oxadiazole] | 78% |  | 74% | 85% | 85%
3 | CN(C)CCOc1ccccc1-c1nc(-c2ccco2)no1 [Example 57, 5-{2-[2-(N,N-Dimethylamino)-ethyl]oxy-phenyl}-3-(2-furyl)-1,2,4-oxadiazole] | 90% |  | 49% | 54% | 51%
4 | CN(C)CCOc1ccccc1-c1nc(-c2cccc(Cl)c2)no1 [Example 59, 5-{2-[2-(N,N-Dimethylamino)-ethyl]oxy-phenyl}-3-(3-chlorophenyl)-1,2,4-oxadiazole] | 84% |  | 82% | 70% | 54%
5 | CN(C)CCOc1ccccc1-c1nc(-c2ccccc2Br)no1 [Example 64, 5-{2-[2-(N,N-Dimethylamino)-ethyl]oxy-phenyl}-3-(2-bromo-phenyl)-1,2,4-oxadiazole] | 88% |  | 76% | 99% | 65%
6 | Cc1ccc(-c2nc(-c3ccccc3)no2)c(OCCN(C)C)c1 [Example 67, 5-{2-[2-(N,N-Dimethylamino)-ethyl]oxy4-methyl-phenyl}-3-phenyl-1,2,4-oxadiazole] | 90% |  | 54% | 92% | 28%
7 | Cc1cccc(-c2nc(-c3ccccc3)no2)c1OCCN(C)C [Example 68, 5-{2-[2-(N,N-Dimethylamino)-ethyl]oxy-3-methyl-phenyl}-3-phenyl-1,2,4-oxadiazole] | 74% |  | 79% | 100% | 81%
